Results from ChEMBL document CHEMBL3044576, “Synthesis of promising antimicrobial agents: a novel series of N-(4-(2,6-dichloroquinolin-3-yl)-6-(aryl)pyrimidin-2-yl)-2-morpholinoacetamides” (2013).
Converted amounts (≈) assume the structure as drawn.

What was measured:
Format in all cases: functional
Aspergillus clavatus = assay: Antifungal activity against Aspergillus clavatus MTCC 1323 after 72 hr by serial broth dilution method; settings: MTCC 1323, 72 h
Staphylococcus aureus = assay: Antibacterial activity against Staphylococcus aureus MTCC 96 after 24 to 48 hr by serial broth dilution method
Aspergillus niger = assay: Antifungal activity against Aspergillus niger MTCC 282 after 72 hr by serial broth dilution method; settings: MTCC 282, 72 h
Pseudomonas aeruginosa = assay: Antibacterial activity against Pseudomonas aeruginosa MTCC 1688 after 24 to 48 hr by serial broth dilution method
Escherichia coli = assay: Antibacterial activity against Escherichia coli MTCC 443 after 24 to 48 hr by serial broth dilution method
Streptococcus pyogenes = assay: Antibacterial activity against Streptococcus pyogenes MTCC 442 after 24 to 48 hr by serial broth dilution method
Candida albicans = assay: Antifungal activity against Candida albicans MTCC 227 after 72 hr by serial broth dilution method; settings: MTCC 227, 72 h

Row | Structure (SMILES) | MIC (Aspergillus clavatus) | MIC (Staphylococcus aureus) | MIC (Aspergillus niger) | MIC (Pseudomonas aeruginosa) | MIC (Escherichia coli) | MIC (Streptococcus pyogenes) | MIC (Candida albicans)
1 | O=C(CN1CCOCC1)Nc1nc(-c2ccccc2)cc(-c2cc3cc(Cl)ccc3nc2Cl)n1 | 1000 µg/mL (≈ 2020 µM) | 1000 µg/mL (≈ 2020 µM) | 1000 µg/mL (≈ 2020 µM) | 250 µg/mL (≈ 506 µM) | 500 µg/mL (≈ 1010 µM) | 1000 µg/mL (≈ 2020 µM) | 1000 µg/mL (≈ 2020 µM)
2 | O=C(CN1CCOCC1)Nc1nc(-c2ccccc2O)cc(-c2cc3cc(Cl)ccc3nc2Cl)n1 | 500 µg/mL (≈ 980 µM) | 500 µg/mL (≈ 980 µM) | 500 µg/mL (≈ 980 µM) | 250 µg/mL (≈ 490 µM) | 500 µg/mL (≈ 980 µM) | 500 µg/mL (≈ 980 µM) | 1000 µg/mL (≈ 1960 µM)
3 | O=C(CN1CCOCC1)Nc1nc(-c2ccc(O)cc2)cc(-c2cc3cc(Cl)ccc3nc2Cl)n1 | 1000 µg/mL (≈ 1960 µM) | 500 µg/mL (≈ 980 µM) | 1000 µg/mL (≈ 1960 µM) | 1000 µg/mL (≈ 1960 µM) | 500 µg/mL (≈ 980 µM) | 1000 µg/mL (≈ 1960 µM) | 1000 µg/mL (≈ 1960 µM)
4 | COc1ccc(-c2cc(-c3cc4cc(Cl)ccc4nc3Cl)nc(NC(=O)CN3CCOCC3)n2)cc1 | 500 µg/mL (≈ 953 µM) | 500 µg/mL (≈ 953 µM) | 500 µg/mL (≈ 953 µM) | 250 µg/mL (≈ 477 µM) | 250 µg/mL (≈ 477 µM) | 500 µg/mL (≈ 953 µM) | 1000 µg/mL (≈ 1910 µM)
5 | O=C(CN1CCOCC1)Nc1nc(-c2ccccc2Cl)cc(-c2cc3cc(Cl)ccc3nc2Cl)n1 | 25 µg/mL (≈ 47.3 µM) | 250 µg/mL (≈ 473 µM) | 100 µg/mL (≈ 189 µM) | 250 µg/mL (≈ 473 µM) | 50 µg/mL (≈ 94.5 µM) | 100 µg/mL (≈ 189 µM) | 500 µg/mL (≈ 945 µM)
6 | O=C(CN1CCOCC1)Nc1nc(-c2ccc(Cl)cc2)cc(-c2cc3cc(Cl)ccc3nc2Cl)n1 | 100 µg/mL (≈ 189 µM) | 250 µg/mL (≈ 473 µM) | 100 µg/mL (≈ 189 µM) | 25 µg/mL (≈ 47.3 µM) | 100 µg/mL (≈ 189 µM) | 50 µg/mL (≈ 94.5 µM) | 100 µg/mL (≈ 189 µM)
7 | O=C(CN1CCOCC1)Nc1nc(-c2ccccc2F)cc(-c2cc3cc(Cl)ccc3nc2Cl)n1 | 50 µg/mL (≈ 97.6 µM) | 50 µg/mL (≈ 97.6 µM) | 25 µg/mL (≈ 48.8 µM) | 50 µg/mL (≈ 97.6 µM) | 50 µg/mL (≈ 97.6 µM) | 100 µg/mL (≈ 195 µM) | 250 µg/mL (≈ 488 µM)
8 | O=C(CN1CCOCC1)Nc1nc(-c2cccc(F)c2)cc(-c2cc3cc(Cl)ccc3nc2Cl)n1 | 100 µg/mL (≈ 195 µM) | 250 µg/mL (≈ 488 µM) | 100 µg/mL (≈ 195 µM) | 100 µg/mL (≈ 195 µM) | 100 µg/mL (≈ 195 µM) | 500 µg/mL (≈ 976 µM) | 1000 µg/mL (≈ 1950 µM)
9 | O=C(CN1CCOCC1)Nc1nc(-c2ccc(F)cc2)cc(-c2cc3cc(Cl)ccc3nc2Cl)n1 | 12.5 µg/mL (≈ 24.4 µM) | 500 µg/mL (≈ 976 µM) | 1000 µg/mL (≈ 1950 µM) | 250 µg/mL (≈ 488 µM) | 25 µg/mL (≈ 48.8 µM) | 100 µg/mL (≈ 195 µM) | 500 µg/mL (≈ 976 µM)
10 | O=C(CN1CCOCC1)Nc1nc(-c2ccccc2[N+](=O)[O-])cc(-c2cc3cc(Cl)ccc3nc2Cl)n1 | 50 µg/mL (≈ 92.7 µM) | 500 µg/mL (≈ 927 µM) | 25 µg/mL (≈ 46.3 µM) | 50 µg/mL (≈ 92.7 µM) | 12.5 µg/mL (≈ 23.2 µM) | 12.5 µg/mL (≈ 23.2 µM) | 100 µg/mL (≈ 185 µM)
11 | O=C(CN1CCOCC1)Nc1nc(-c2cccc([N+](=O)[O-])c2)cc(-c2cc3cc(Cl)ccc3nc2Cl)n1 | 100 µg/mL (≈ 185 µM) | 50 µg/mL (≈ 92.7 µM) | 50 µg/mL (≈ 92.7 µM) | 100 µg/mL (≈ 185 µM) | 100 µg/mL (≈ 185 µM) | 100 µg/mL (≈ 185 µM) | 500 µg/mL (≈ 927 µM)
12 | O=C(CN1CCOCC1)Nc1nc(-c2ccc([N+](=O)[O-])cc2)cc(-c2cc3cc(Cl)ccc3nc2Cl)n1 | 25 µg/mL (≈ 46.3 µM) | 100 µg/mL (≈ 185 µM) | 100 µg/mL (≈ 185 µM) | 250 µg/mL (≈ 463 µM) | 250 µg/mL (≈ 463 µM) | 250 µg/mL (≈ 463 µM) | 250 µg/mL (≈ 463 µM)
13 | CC1(C)S[C@@H]2[C@H](NC(=O)[C@H](N)c3ccccc3)C(=O)N2[C@H]1C(=O)O [AMPICILLIN] |  | 250 µg/mL (≈ 715 µM) |  | 100 µg/mL (≈ 286 µM) | 100 µg/mL (≈ 286 µM) | 100 µg/mL (≈ 286 µM) | 
14 | COC1=CC(=O)C[C@@H](C)[C@]12Oc1c(Cl)c(OC)cc(OC)c1C2=O [GRISEOFULVIN] | 100 µg/mL (≈ 283 µM) |  | 100 µg/mL (≈ 283 µM) |  |  |  | 500 µg/mL (≈ 1420 µM)
